Data: the NIST ThermoML archive (doi:10.1021/acs.jced.6b00895)
± gives the expanded uncertainty stated by the source.

Conditions: Liquid, Ebulliometric method (Recirculating still)

COCC(C)O (centres undefined) [1-methoxy-2-propanol]
vapor or sublimation pressure (393.15 K): 101.3 ± 1.5 kPa

COC(C)CO (centres undefined) [2-methoxy-1-propanol]
vapor or sublimation pressure (402.65 K): 101.3 ± 1.5 kPa

COCCO [2-methoxyethan-1-ol]
vapor or sublimation pressure (397.67 K): 101.3 ± 1.5 kPa

O [water]
vapor or sublimation pressure (373.19 K): 101.3 ± 1.5 kPa
